The nature of data set [1]: Effect on the sleeping time. It is filed as in vivo. The settings on record: 25 mg/kg i.p.
The test system of data set [2] is mortality induced by compound 48/80. Briefly: Effect on the mortality induced by compound 48/80. It is filed as in vivo, Sprague Dawley Nos male rats. The settings on record: Rattus norvegicus, ip, 4 h; i.p., 30 minutes before 2 mg/kg i.v. compound 48/80; rats; read-out: Compound 48/80 mortality ID50. As for the experimental part:
The tests were carried out according to the method described by C. J. E. Niemergeers et al., Arch. Int. Pharmacodyn., 234,164,-1978. Sprague Dawley Nos male rats (Nossan, Correzzana, Milano) weighing 140-150 g, divided into groups of 10 animals each, on an empty stomach for 24 hrs and with water ad libitum, were kept in cages with a grid floor, then treated intravenously with 2 mg/kg of compound 48/80 (1 ml/rat). The compound (I) or the carrier were dissolved in water (5 ml/kg) and intraperitoneally administered to the animals 30 minutes before the treatment with the compound 48/80. The mortality occurred in the group of treated animals during the first 4 hours following the treatment was noted down. The results were expressed as the number of animals dead with respect to the number of treated animals.
The experimental data were submitted to the variance analysis and to the subsequent multiple comparisons according to Dunnett (D. J. Finney, "Statistical Method in Biological Assay", Ed. L. Griffin and Co., Ltd., pg. 152-157, Edition Ames, Iowa, 1971).

Data set [3] addresses T1, H1 histaminergic receptors (Rattus norvegicus, UniProt P31390).
T1 construct: in homogenates of rat brain; from tissue; host or cells: rat whole brain homogenate
Briefly: Affinity towards H1 histaminergic receptors ([3H]Mepyramine displacement, rat brain homogenates). The settings on record: 2 nM [3H]Mepyramine, 25° C., 15 minutes, pH 7.5, read-out: H1-receptor binding IC50. As for the experimental part:
The affinity of the examined compounds towards H1 histaminergic receptors as evaluated by displacement curves which were obtained of different concentrations, against [^3 H]
The incubation was performed at 25° C. for 15 minutes, in a final volume of 1 ml of […] Na/K phosphate buffer, pH 7.5, in the presence of 2 nM [^3 H] Mepyramina and 1.5 mg of cerebral protein. Aspecific binding was defined as the residual radioactivity bound in the presence of […] Clemastine. The test compounds were dissolved in phosphate buffer or dimethylsulfoxide (DMSO), the final concentration of DMSO was 0.5%. Incubation was terminated by filtration through glass fiber GF/B filters pre-soaked with 0.1% polyethylenimine (PEI). The radioactivity trapped by filters was counted by liquid scintillation.

Data set [4] is described as follows: Acute toxicity (LD50) on mice. To be noted: mouse, in vivo, ip. As for the experimental part:
The Letal Dose50 (LD50) was evaluated on mice using Swiss Nos (Nossan, Correzzana, Milano) mice weighing 18-20 g each. The animals, divided into groups of 10 animals each (5M+5F), were on an empty stomach for 18 hrs, with water ad libitum, and kept in cages with a grid floor. The compounds (I) were dissolved in water or suspended in 0.5% carboxymethylcellulose and intraperitioneally administered to the animals (10 ml/kg). The mortality occurred in the tested animals within the following 6 hours was noted down. At the expiry of the 6th hour, the animals were allowed to eat up to the end of the experimentation which lasted 14 days. During this period all the toxic symptoms and the mortality occurring were noted.
The animals which died during the test period and those which were sacrificed at the end of the same, underwent autopsy for a macroscopic examination of their main organs. The experimental data were statistically compared with the X^2 method and LD50 was extrapolated by the `probit` method.

Data set [5] has as its system mortality induced by histamine. The data set can be described thus: Effect on the mortality induced by histamine. The data set is classed as in vivo, male albino guinea pigs (Dunkin-Hartley). The settings on record: Cavia porcellus, ip, 30 minutes before 1.25 mg/kg i.v. histamine dihydrochloride; guinea pigs; read-out: Histamine mortality ID50. The method, then:
The method described by Romer D. et al., (Med. Welt 17, 791, 1966) was followed and the tests were carried out on male albino guinea pigs (Dunkin-Hartley), weighing 350-450 g, which were kept in cages with a grid floor, on an empty stomach for 24 hrs and with water ad libitum.
The compounds (I) were dissolved in saline solution and intraperitoneally administered to the animals: 30 minutes later the same animals were intravenously treated with 1.25 mg/kg of histamine dihydrochloride in saline solution.
It was evaluated ID50 which corresponds to the amount of the compound able to inhibit 50% of the mortality induced by histamine: the estimation of ID50 was carried out by applying the `probit` method (Finney D. J. "Statistical Method in Biological Assay" p. 512, 1957).

SMILES strings stand for the structures. Structures can show the parent of a compound that is named as a salt. Bounds are passed on as bounds.

T1 sequence (P31390 whole entry): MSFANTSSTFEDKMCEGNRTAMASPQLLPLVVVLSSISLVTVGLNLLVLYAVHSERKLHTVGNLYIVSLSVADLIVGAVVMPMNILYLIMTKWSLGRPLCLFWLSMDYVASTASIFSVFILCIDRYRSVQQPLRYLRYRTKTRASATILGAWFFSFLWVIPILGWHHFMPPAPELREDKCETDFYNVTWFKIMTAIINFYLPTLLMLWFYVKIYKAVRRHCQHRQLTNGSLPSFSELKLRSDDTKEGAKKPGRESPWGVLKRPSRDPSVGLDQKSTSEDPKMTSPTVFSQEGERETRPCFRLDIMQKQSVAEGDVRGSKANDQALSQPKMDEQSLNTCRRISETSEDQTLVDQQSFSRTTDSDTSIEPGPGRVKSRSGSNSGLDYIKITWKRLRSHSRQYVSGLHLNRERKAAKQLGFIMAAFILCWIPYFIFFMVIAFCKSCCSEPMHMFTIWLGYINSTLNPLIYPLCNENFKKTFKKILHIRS

In the case of `CCOCCn1c(SCCN(C)C)nc2ccccc21` [Example 3, 1-(2-Ethoxyethyl)-2-(2-dimethylaminoethylthio)benzimidazole. 2 HCl], the “Sleeping time % increase” value in data set [1] was determined as 5%. Besides, the ED50 in data set [2] was determined as 0.008 mg/kg; in data set [5], 0.0109 mg/kg. Moreover, the IC50 (as a rule, the midpoint of a concentration-inhibition curve) in data set [3] was found to be 2.4 nM. For the same molecule, the LD50 (commonly the dose at which mortality reaches 50%) at 336 h in data set [4] was above 100 mg/kg.
Take `CCOCCn1c(SCC(C)N(C)C)nc2ccccc21` (centres unmarked) [Example 5, 1-(2-Ethoxyethyl)-2-(2-dimethylaminoisopropylthio)benzimidazole]: in data set [1], the “Sleeping time % increase” value was 10%. Besides, the ED50 in data set [2] came to 0.009 mg/kg; in data set [5] it was 0.05 mg/kg. Moreover, the IC50 in data set [3] was found to be 6.1 nM. The LD50 at 336 h in data set [4] was around 100 mg/kg.
For the molecule `CC(C)(C)c1ccc(C(O)CCCN2CCC(C(O)(c3ccccc3)c3ccccc3)CC2)cc1` (centres unmarked) [Terfenadine, reference compound], the “Sleeping time % increase” value in data set [1] amounted to 8%. Moreover, the ED50 in data set [2] stood at 1.99 mg/kg; in data set [5] it was 0.735 mg/kg. In addition, in data set [4], the LD50 at 336 h was above 100 mg/kg.

The values are drawn from US4983620A, “Pharmacologically active alkylthiobenzimidazole derivatives and process for the preparation thereof” (Dompe Farmaceutici S.p.A., priority 1988, dated 1991).
